The source of these data is paper PMC10376326, “Novel Acylselenourea Derivatives: Dual Molecules with Anticancer and Radical Scavenging Activity” (Antioxidants, 2023).

Structures are written as SMILES. “Also recorded” adds a separate entry of the source. Bounds are passed on as bounds.

Assay [1] relates to non-malignant BEAS-2B lung cell line. The experiment in a line: MTT cell viability assay, BEAS-2B. Type of assay: cell-based. The note with it: Homo sapiens, normal lung, 48 h. How it is done:
Cell lines were purchased from the American Type Culture Collection (ATCC). Cell lines MDA-MB-231, HTB-54, DU-145, and BEAS-2B were cultured in RPMI 1640 medium (Gibco, Thermo Fisher Scientific, Gaithersburg, MD, USA) supplemented with 10% fetal bovine serum (FBS; Gibco), 100 units/mL penicillin, and […] streptomycin (Gibco). HT-29 cell line was grown in McCoy’s 5A (Gibco), 10% FBS, 100 units/mL penicillin, and 100 μg/mL streptomycin. Cells were maintained at 37 °C and 5% CO2. The culture medium was changed every three days.
The cell viability of each compound was measured by MTT colorimetric assay. Each compound was dissolved in DMSO at a concentration of 0.01 M. Each compound was tested at two different concentrations (10 and 50 µM) in MDA-MB-231 (breast), HTB-54 (lung), DU-145 (prostate), and HT-29 (colon) human cancer cell lines. Serial dilutions were prepared with supplemented culture medium. […] IC50 and selectivity indexes (SI) were determined.
Briefly, 1 × 10^4 tumor cells per well were grown in 96-well plates for 24 h. Then, these cells were incubated for 48 h with either DMSO (control) or a different concentration of each of the tested compounds. The cell viability was determined by adding 20 μL of MTT two hours and a half before the termination point. After this time, the culture medium was removed. The resulting formazan crystals were dissolved in 50 μL of DMSO, and the absorbance was measured at 570 nm. Results are expressed as % cell growth. The data were obtained from at least three independent experiments performed in quadruplicate.

Assay [2] deals with DU-145 cells. The experiment in a line: Annexin V & Dead Cell apoptosis assay. The note with it: DU-145, 10 µM, 24 h. The class given is cell-based, human. The protocol: Induction of apoptosis was assayed using Annexin V & Dead Cell assay kit and Caspase 3/7 assay kit (EMD Millipore, Darmstadt, Germany). DU-145 cells were seeded in 6-well plates at a density of 6 × 10^5 cells/well and treated either with DMSO (control) or 10 µM of compounds 1.I and 5.I and incubated for 24 h. At the end of treatment, cells were harvested and processed with appropriate staining according to the manufacturer’s protocol. For the Caspase 3/7 assay, cells were stained with 5 μL of Muse™ Caspase 3/7 working solution and incubated at 37 °C for 30 min. After incubation, […] of Muse™ Caspase 7-AAD working solution was added and the samples were incubated for another 5 min at room temperature in the dark. For Annexin V assay, cells were stained with 100 μL pf Muse™ Annexin V & Dead Cell Reagent and incubated for 20 min at room temperature in the dark prior to analysis. Samples were further analyzed on a Muse™ Cell Analyzer (Merck Millipore, Darmstadt, Germany) using Muse™ 1.4 software. Data were obtained from at least two independent experiments.

The subject of assay [3] is MDA-MB-231, HT-29, HTB-54 and DU-145 cancer cell lines. Put plainly: MTT cell viability assay, statements over the panel of cancer cell lines. The class given is cell-based, human. Conditions: for IC50: Homo sapiens, span over HTB-54, MDA-MB-231 and DU-145; for cell growth: in at least three of the four cancer cell lines tested. The method in brief: (§1)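 MDA-MB-231, HTB-54 and DU-145 grown in RPMI 1640, HT-29 in McCoy's 5A (10% FBS). Output is % cell growth; IC50 determined; ≥3 experiments in quadruplicate.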

For assay [4], the system named is DU-145 cells. The experiment in a line: Protective effects against H2O2-induced oxidative stress in DU-145 cells (MTT). Conditions: for fold increase of cell survival: 0.0015 mg/mL, DU-145 treated with 300, 250 and 200 µM H2O2; for Increase-fold: increase-fold of cell survival. The class given is cell-based, human. The protocol: Cells were treated with the selected compounds and then oxidative damage to DU-145 cells was induced using different concentrations of H2O2 (200, 250 and 300 µM), and cell viability was assessed by the MTT method. Briefly, 2.5 × 10^4 DU-145 cells per well were added in 96-well plates. After 24 h of incubation, DMSO, 1.I, 2.I, 5.I, 7.II, 10.II, and ascorbic acid were added to each well at two different concentrations (0.0015 mg/mL and 0.0003 mg/mL) and incubated for 1 h. After that, H2O2 was added at the concentrations of 200, 250, and 300 µM, and the cells were incubated for 12 h to induce cell damage. MTT assay was used to measure cell viability. For each treatment, the mean cell viability was calculated from three independent experiments. The DMSO-treated controls were assigned with a cell viability value of 100% (Vcontrol). The results are expressed as a cell growth inhibition % caused by H2O2 and the increased fold of cell survival, as follows: • Cells without compounds, only treated with H2O2: (2) % Cell growth inhibition=Acontrol - Asample/Acontrol × 100
• Cells treated with compounds and H2O2:
(3) % Cell growth inhibition=Asample (compound) - Asample (compound+H2O2)/Acontrol × 100
(4) Increase-fold of cell survival=% cell growth inhibition (H2O2)/% cell growth inhibition (compound+ H2O2)
The standard error of the mean (SEM) was calculated in at least three independent experiments performed in quadruplicates.

Assay [5] has as its system HT-29 (colon) cancer cell line. The experiment in a line: MTT cell viability assay, HT-29. The class given is cell-based. The note with it: Homo sapiens, HT-29, 48 h, read-out: Cell growth %; for activity at 10 µM: HT-29, 10 µM; for activity at 50 µM: HT-29, 50 µM. The method in brief:
as §1

For assay [6], the system named is MDA-MB-231 (breast) cancer cell line. The experiment in a line: MTT cell viability assay, MDA-MB-231. Conditions: Homo sapiens, MDA-MB-231, 48 h; for activity at 10 µM: read-out: Cell growth %, MDA-MB-231, 10 µM, 48 h, MTT; for activity at 50 µM: read-out: Cell growth %, MDA-MB-231, 50 µM, 48 h, MTT; for IC50: read-out: IC50 MDA-MB-231. Type of assay: cell-based, human. The method in brief:
as §1
(In general: Tetrazolium dyes change colour on reduction, which living cells bring about.)

[7] abbreviates: compound 0.0003 mg/mL, 200 µM H2O2, DU-145.
Where [8] appears, read: compound 0.0003 mg/mL, 250 µM H2O2, DU-145.
[9] abbreviates: compound 0.0003 mg/mL, 300 µM H2O2, DU-145.
Setting [10] is: compound 0.0015 mg/mL, 200 µM H2O2, DU-145.
Setting [11] is: compound 0.0015 mg/mL, 250 µM H2O2, DU-145.
The mark [12] stands for this setting: compound 0.0015 mg/mL, 300 µM H2O2, DU-145.

Turning to `CCCNC(=[Se])NC(=O)c1ccco1` [Compound 1.I, N-(propylcarbamoselenoyl)furan-2-carboxamide], the 50% inhibitory concentration (IC50) was greater than 100 µM in assay [1], 7.8 to 15.5 µM in assay [3] and 8.8 ± 4.8 µM in assay [6]. In addition, the “increase of late/dead apoptotic cells with respect to the control” value in the assay on DU-145 cells [2] is listed as “about 25%”. Moreover, the “viable population reduced by” value with DU-145 cells [2] came out at 37%. Further, the cell growth entry in assay [3] was “below 55%”. For the same compound, the “fold increase of cell survival” value with DU-145 cells [4] is given as “doubled cell viability; also recorded: greater two-fold increase of cell survival”. Also, the Increase-fold with DU-145 cells [4] (setting [7]) was determined as 2.0 ± 0.0; in the assay with DU-145 cells [4] (setting [8]), 2.0 ± 0.7; in the assay on DU-145 cells [4] (setting [9]) it was 1.8 ± 0.4; in the assay on DU-145 cells [4] (setting [10]) it was 2.3 ± 0.7; in the assay on DU-145 cells [4] (setting [11]), 2.7 ± 0.4; in the assay on DU-145 cells [4] (setting [12]) it was 2.3 ± 0.3. The activity at 10 µM in assay [5] came to 44.2 ± 7.1%; in assay [6] it was 46.7 ± 5.6%. For the same compound, the activity at 50 µM in assay [5] was determined as 25.5 ± 4.2%; in assay [6] it was 38 ± 7.8%.
Take `CCCNC(=[Se])NC(=O)c1ccccc1` [Compound 5.I, N-(propylcarbamoselenoyl)benzamide]: the figures for the concentration for half-maximal inhibition (IC50) in assay [1], in assay [3] and in assay [6] were greater than 100 µM, 7.8 to 15.5 µM and 15.5 ± 6.3 µM, respectively. The “increase of late/dead apoptotic cells with respect to the control” value in the assay with DU-145 cells [2] was “about 25%”. The “viable population reduced by” value with DU-145 cells [2] is given as 37%. Also, the cell growth entry in assay [3] is “below 55%”. Besides, the “fold increase of cell survival” value in the assay on DU-145 cells [4] is recorded as “doubled cell viability; also recorded: greater two-fold increase of cell survival”. In addition, the Increase-fold came out at 1.9 ± 0.3 in the assay with DU-145 cells [4] (setting [7]); 1.9 ± 0.4 in the assay on DU-145 cells [4] (setting [8]); 1.7 ± 0.4 with DU-145 cells [4] (setting [9]); 3.1 ± 0.5 with DU-145 cells [4] (setting [10]); 2.7 ± 0.3 with DU-145 cells [4] (setting [11]); 2.4 ± 0.4 in the assay with DU-145 cells [4] (setting [12]). For the same compound, the activity at 10 µM in assay [5] was 39.6 ± 14.3%; in assay [6], 45 ± 12.5%. Further, the figures for the activity at 50 µM in assay [5] and in assay [6] were 21.4 ± 1.5% and 21.3 ± 11.2%, respectively.

What is called IC50 is the concentration that inhibits the measured activity by half.
